The text below walks through data of patent publication US8828985B2, “Carbamate and urea inhibitors of 11-beta-hydroxysteroid dehydrogenase 1” (Vitae Pharmaceuticals, Inc., priority 2008, dated 2014).

In the experiment the target is human 11β-HSD1 (Homo sapiens, UniProt P28845). The experiment is described as follows: biochemical. Particulars: for inhibition at 0.1 µM / inhibition at 0.111 µM: 1.5 h; for IC50: Biological Test Example 2 IC50 Range, microsomes from CHO cells overexpressing human 11β-HSD1, SPA; for inhibition at 0.111 µM: read-out: Biological Test Example 2 Average % inhibition at 111 nm, at 111 nm.
Chain of human 11β-HSD1 (P28845 whole entry): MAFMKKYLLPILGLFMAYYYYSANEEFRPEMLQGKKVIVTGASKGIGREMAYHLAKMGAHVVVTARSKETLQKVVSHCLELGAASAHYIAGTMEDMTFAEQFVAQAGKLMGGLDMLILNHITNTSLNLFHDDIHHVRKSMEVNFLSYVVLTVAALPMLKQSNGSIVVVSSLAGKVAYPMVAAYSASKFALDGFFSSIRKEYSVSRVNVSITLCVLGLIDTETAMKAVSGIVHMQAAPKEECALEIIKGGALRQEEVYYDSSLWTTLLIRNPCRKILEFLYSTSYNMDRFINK

Setting [1] is: read-out: Biological Test Example 2 Average % inhibition at 100 nm, at 100 nm.

Molecules are shown by their SMILES. Read-outs that look alike come from different tables or passages of the source.

Procedure: All reactions are carried out at room temperature in 96 well clear flexible PET Microbeta plates (PerkinElmer). […] The reaction is stopped by adding 50 μl of the SPA beads suspension containing 10 μM 18β-glycyrrhetinic acid, 5 mg/ml protein A coated YSi SPA beads (GE Healthcare) and 3.3 μg/ml of anti-cortisol antibody (East Coast Biologics) in Superblock buffer (Bio-Rad). The plates are then shaken for 120 minutes at room temperature, and the SPA signal corresponding to [^3H]cortisol is measured on a Microbeta plate reader.

Regarding `O=C(O[C@H]1C2CC3CC1C[C@](O)(C3)C2)N1CC[C@@H](Nc2ncnc3ccccc23)C1` [Example 85, (R)-(trans-1-hydroxy-4-adamantyl) 3-(quinazolin-4-ylamino)pyrrolidine-1-carboxylate], the IC50 (commonly the concentration that inhibits the measured activity by half) was under 100 nM. The inhibition (in general, the change of the read-out against control, counted positive when it falls) at 0.1 µM under setting [1] came to 64%.
For the molecule `N#Cc1cnc(N[C@@H]2CCN(C(=O)O[C@H]3C4CC5CC3C[C@](O)(C5)C4)C2)s1` [Example 82, (R)-(trans-1-hydroxy-4-adamantyl) 3-(5-cyanothiazol-2-ylamino)pyrrolidine-1-carboxylate], the 50% inhibitory concentration (IC50) was under 100 nM. In addition, under setting [1], the inhibition at 0.1 µM is 86.6%.
In turn, `N#Cc1ccc(N[C@@H]2CCN(C(=O)O[C@H]3C4CC5CC3C[C@](C(N)=O)(C5)C4)C2)nc1` [Example 35, (R)-(trans-1-carbamoyl-4-adamantyl) 3-(5-cyanopyridin-2-ylamino)pyrrolidine-1-carboxylate] gave an IC50 of under 100 nM. In addition, under setting [1], the inhibition at 0.1 µM was found to be 101%.
Taken in the same sequence, the figures for `N#Cc1cccnc1N[C@H]1CCN(C(=O)O[C@H]2C3CC4CC2C[C@](C(N)=O)(C4)C3)C1` [Example 66, (S)-(trans-1-carbamoyl-4-adamantyl) 3-(3-cyanopyridin-2-ylamino)pyrrolidine-1-carboxylate] were under 100 nM and 95.5%.
Take `CC(C)COC(=O)N[C@@H]1CCN(C(=O)NC2C3CC4CC(C3)CC2C4)C1` (stereo partly drawn) [Example 50, (R)-isobutyl 1-((2-adamantyl)carbamoyl)pyrrolidin-3-ylcarbamate]: the inhibition at 0.111 µM was 92.9% and the half-inhibitory concentration (IC50) was under 100 nM.
Take `O=C(NC1CC1)c1cnc(N[C@@H]2CCN(C(=O)O[C@H]3C4CC5CC3C[C@](O)(C5)C4)C2)nc1` [Example 112, (R)-(trans-1-hydroxy-4-adamantyl) 3-(5-(cyclopropylcarbamoyl)pyrimidin-2-ylamino)pyrrolidine-1-carboxylate]: the half-inhibitory concentration (IC50) is over 100 nM. Besides, the inhibition at 0.1 µM under setting [1] turned out to be 33.3%.
On to `CC(C)(C)OC(=O)NC1(c2ccccc2)CCN(C(=O)OC2C3CC4CC(C3)CC2C4)C1` (stereo not shown) [Example 13, (2-adamantyl) 3-(tert-butoxycarbonylamino)-3-phenylpyrrolidine-1-carboxylate], for which the IC50 is under 100 nM. Besides, the inhibition at 0.1 µM under setting [1] was 87.7%.
On to `N#Cc1cccnc1NC1CCN(C(=O)O[C@H]2C3CC4CC2C[C@](C(N)=O)(C4)C3)CC1` [Example 68, (1-carbamoyl-4-adamantyl) 4-(3-cyanopyridin-2-ylamino)piperidine-1-carboxylate], for which the concentration for half-maximal inhibition (IC50) is under 100 nM. Moreover, under setting [1], the inhibition at 0.1 µM came to 90.7%.
Taken in the same sequence, the figures for `N#Cc1ccc(N[C@H]2CCN(C(=O)O[C@H]3C4CC5CC3C[C@](C(N)=O)(C5)C4)C2)nc1` [Example 65, (S)-(trans-1-carbamoyl-4-adamantyl) 3-(5-cyanopyridin-2-ylamino)pyrrolidine-1-carboxylate] were under 100 nM and 97.1%.
Taken in the same sequence, the figures for `CN(C(=O)c1ccc(N[C@@H]2CCN(C(=O)O[C@H]3C4CC5CC3C[C@](O)(C5)C4)C2)nc1)C(C)(C)C` [Example 99, (trans-1-hydroxy-4-adamantyl) 3-(5-(tert-butyl(methyl)carbamoyl)pyridin-2-ylamino)pyrrolidine-1-carboxylate] were over 100 nM and 21.8%.
On to `O=C(O[C@H]1C2CC3CC1C[C@](O)(C3)C2)N1CC[C@@H](Nc2ccc3cc(Cl)ccc3n2)C1` [Example 95, (R)-(trans-1-hydroxy-4-adamantyl) 3-(6-chloroquinolin-2-ylamino)pyrrolidine-1-carboxylate], for which the IC50 was under 100 nM. The inhibition at 0.1 µM under setting [1] is 90.6%.
Molecule `CN(c1ncccc1C(F)(F)F)C1CCN(C(=O)O[C@H]2C3CC4CC2C[C@](C(N)=O)(C4)C3)C1` (stereo partly drawn) [Example 44, (trans-1-carbamoyl-4-adamantyl) 3-(methyl(3-(trifluoromethyl)pyridin-2-yl)amino)pyrrolidine-1-carboxylate] registered an IC50 of under 100 nM. The inhibition at 0.1 µM under setting [1] was 97.2%.
`CN(C)C(=O)c1cnc(N[C@@H]2CCN(C(=O)O[C@H]3C4CC5CC3C[C@](O)(C5)C4)C2)nc1` [Example 111, (R)-(trans-1-hydroxy-4-adamantyl) 3-(5-(dimethylcarbamoyl)pyrimidin-2-ylamino)pyrrolidine-1-carboxylate] came in with an IC50 of over 100 nM. Further, the inhibition at 0.1 µM under setting [1] came to 33.5%.
Turning to `N#Cc1cnc(N[C@@H]2CCN(C(=O)O[C@H]3C4CC5C[C@@H]3C[C@](C(N)=O)(C5)C4)C2)s1` [Example 72, (3R) (1-carbamoyl-4-adamantyl) 3-(5-cyanothiazol-2-ylamino)pyrrolidine-1-carboxylate], the inhibition at 0.111 µM is 97.3% and the IC50 is under 100 nM. For the same molecule, the inhibition at 0.1 µM under setting [1] came to 97.3%.
For the molecule `CS(=O)(=O)N1C2CCC1CC(NC(=O)N1CC[C@@H](Nc3ccc(C#N)cn3)C1)C2` (stereo partly drawn) [Example 106, (3R)-3-(5-cyanopyridin-2-ylamino)-N-(8-(methylsulfonyl)-8-azabicyclo[3.2.1]octan-3-yl)pyrrolidine-1-carboxamide], the IC50 is over 100 nM. The inhibition at 0.1 µM under setting [1] was 3.9%.
As for `CC(C)(C)OC(=O)N1C[C@@H]2C[C@H]1CN2C(=O)OC1C2CC3CC(C2)CC1C3` (stereo partly drawn) [Example 7, (1S,4S)-2-tert-butyl 5-(2-adamantyl)-2,5-diazabicyclo[2.2.1]heptane-2,5-dicarboxylate], the IC50 was under 100 nM.
As for `N#Cc1ccc(N[C@@H]2CCN(C(=O)NC3C4CC5CC(C4)CC3C5)C2)nc1` (stereo partly drawn) [Example 61, (R)-3-(5-cyanopyridin-2-ylamino)-N-(2-adamantyl)pyrrolidine-1-carboxamide], the IC50 was under 100 nM. The inhibition at 0.1 µM (read-out: Biological Test Example 2 Average % inhibition at 100 nm) worked out at 97.6%.
On to `COC(=O)C12CC3CC(C1)C(OC(=O)N1CC[C@@H](Nc4ncccc4C#N)C1)C(C3)C2` (stereo partly drawn) [Example 70, (R)-(1-(methoxycarbonyl)-4-adamantyl) 3-(3-cyanopyridin-2-ylamino)pyrrolidine-1-carboxylate], for which the IC50 is under 100 nM. Under setting [1], the inhibition at 0.1 µM worked out at 78.4%.
The corresponding values for `N#Cc1cc(Cl)cnc1N[C@@H]1CCN(C(=O)O[C@H]2C3CC4CC2C[C@](O)(C4)C3)C1` [Example 86, (R)-(trans-1-hydroxy-4-adamantyl) 3-(5-chloro-3-cyanopyridin-2-ylamino)pyrrolidine-1-carboxylate] are under 100 nM and 101%.
The molecule `N#Cc1ccc(N[C@@H]2CCN(C(=O)OC3C4CC5CC3CC(C(=O)NC3CC3)(C5)C4)C2)nc1` (single isomer, unassigned) [Example 118 Isomer 1] yielded an IC50 of over 100 nM. Further, the inhibition at 0.1 µM under setting [1] was 9.1%.
The corresponding values for `Cc1ccc(C#N)c(N[C@@H]2CCN(C(=O)O[C@H]3C4CC5CC3C[C@](O)(C5)C4)C2)n1` [Example 83, (R)-(trans-1-hydroxy-4-adamantyl) 3-(3-cyano-6-methylpyridin-2-ylamino)pyrrolidine-1-carboxylate] are under 100 nM and 98.5%.
In turn, `N#Cc1cccnc1N[C@@H]1CCN(C(=O)O[C@H]2C3CC4CC2C[C@](C#N)(C4)C3)C1` [Example 73, (3R) (trans-1-cyano-4-adamantyl) 3-(3-cyanopyridin-2-ylamino)pyrrolidine-1-carboxylate] came in with a half-inhibitory concentration (IC50) of under 100 nM. Besides, the inhibition at 0.1 µM under setting [1] amounted to 94.6%.
Taken in the same sequence, the figures for `O=C(O)c1cnc(N[C@@H]2CCN(C(=O)O[C@H]3C4CC5CC3C[C@](O)(C5)C4)C2)nc1` [Example 108, 2-((R)-1-((trans-1-hydroxy-4-adamantyloxy)carbonyl)pyrrolidin-3-ylamino)pyrimidine-5-carboxylic acid] were over 100 nM and 14.2%.
Consider `NC(=O)c1cnc(N[C@@H]2CCN(C(=O)O[C@H]3C4CC5CC3C[C@](O)(C5)C4)C2)nc1` [Example 109, (R)-(trans-1-hydroxy-4-adamantyl) 3-(5-carbamoylpyrimidin-2-ylamino)pyrrolidine-1-carboxylate], for which the IC50 is under 100 nM. In addition, under setting [1], the inhibition at 0.1 µM is 50.1%.
Consider `COC(=O)c1cnc(N[C@@H]2CCN(C(=O)O[C@H]3C4CC5CC3C[C@](O)(C5)C4)C2)nc1` [Example 107, Methyl 2-((R)-1-((trans-1-hydroxy-4-adamantyloxy)carbonyl)pyrrolidin-3-ylamino)pyrimidine-5-carboxylate], for which the half-inhibitory concentration (IC50) was under 100 nM.
For `N#Cc1ccc(N2CCCC23CCN(C(=O)O[C@H]2C4CC5CC2C[C@](C(N)=O)(C5)C4)C3)nc1` (stereo partly drawn) [Example 75, (trans-1-carbamoyl-4-adamantyl) 1-(5-cyanopyridin-2-yl)-1,7-diazaspiro[4.4]nonane-7-carboxylate], the inhibition at 0.111 µM was found to be 97.7% and the IC50 was under 100 nM. Further, under setting [1], the inhibition at 0.1 µM was found to be 98.8%.
With `CC1(Nc2ccc(C#N)cn2)CCN(C(=O)O[C@H]2C3CC4CC2C[C@](C(N)=O)(C4)C3)C1` (stereo partly drawn) [Example 69, (trans-1-carbamoyl-4-adamantyl) 3-(5-cyanopyridin-2-ylamino)-3-methylpyrrolidine-1-carboxylate], the IC50 was under 100 nM. In addition, the inhibition at 0.1 µM under setting [1] came to 98.7%.
With `N#Cc1cccnc1N[C@@H]1CCN(C(=O)O[C@H]2C3CC4CC2C[C@](C(N)=O)(C4)C3)C1` [Example 34, (R)-(trans-1-carbamoyl-4-adamantyl) 3-(3-cyanopyridin-2-ylamino)pyrrolidine-1-carboxylate], the IC50 is under 100 nM. The inhibition at 0.1 µM under setting [1] came to 94.6%.
Taken in the same sequence, the figures for `CC1(Nc2ncccc2C#N)CCN(C(=O)O[C@H]2C3CC4CC2C[C@](C(N)=O)(C4)C3)C1` (stereo partly drawn) [Example 67, (trans-1-carbamoyl-4-adamantyl) 3-(3-cyanopyridin-2-ylamino)-3-methylpyrrolidine-1-carboxylate] were under 100 nM and 97%.
